Experimental data published in patent US20050244387A1, “Entomopathogenic nematodes and methods of their use” (priority 2004, published 2005).

Key:
Type in all cases: in vivo
[1] = tested on: second instar Popillia japonica grub populations; test: Microplot (cylinder) field trials, Trials 1-4; conditions: Ohio
Procedure: Microplot trials consisted of field plots in which PVC cylinders, 20 cm inside diameter, were inserted to a depth of about 7 cm. Four microplot trials (Trials 14) were conducted on second instar P. japonica grubs.
P. japonica adults were caged in the PVC cylinders to obtain grub populations following the methods described by Klein et al. (2000). Adult beetles were lured to Trece Catch Can traps (Trece Inc., Adair, Okla.) using a feeding lure containing PEG (phenol ethyl propionate, eugenol, and geraniol) and collected. Twice, at 1-week intervals, 30 adults consisting of approximately 50% females (measured volumetrically) were placed in each cylinder and covered with a nylon 20 mesh screen to induce egg laying within the cylinder area. The ovipositing beetles were fed fresh apple slices dusted with Brewer's yeast twice a week. Fourteen days after the initial caging, the nylon screens were removed. The developing grub population was monitored until the larvae reached the second instar, when all curative treatments were applied.
Trials 1, 2, and 4 were located at the Ohio Agricultural Research and Development Center, Wooster, Ohio whereas trial 3 was located at the TrueGreen Technical Center in Delaware, Ohio. Trials 1, 2, and 4 were set up on 1.5-m by 0.9-m plots, separated by 0.9 m alleyways, arranged in a complete randomized block design with four replications/treatment. For these trials, turf consisted of 70% Kentucky bluegrass and 30% dicot and monocot weed species, with level topography and no thatch was observed. Soil was a silt loam, with 2.8% OM, pH 6.0, 11.4 CEC. Trial 3 was conducted on Kentucky bluegrass lawn using 2.44 by 2.44 m plots arranged in a completely randomized block design with 5 replications/treatment. Soil was also a silt loam. Supplemental irrigation was applied prior to treatments to optimize beetle egg hatch and maintain actively growing turfgrass at both locations.
The nematodes were applied in 100 ml of water at 2.5×10^9 IJs/ha as a curative treatment to each cylinder except for trial 3, in which they were applied at 5.0×10^9 IJs/ha in 7.6 liters of water per plot with a hand held sprinkling can. Chemical insecticides were included for comparison in three of the trials. In trial 1, halofenozide was applied at 1.61 kg active ingredient (a.i.)/ha on Jul. 13, 2000 as a preventive treatment prior to P. japonica egg laying with a CO2 sprayer and Teejet 8015 nozzles at 2.81 kg/cm^2 (40 psi) delivering 1630 liters/ha. In trial 2, imidacloprid (Merit 75 WP) was applied at 0.33 kg a.i./ha on July 14 and trichlorfon granules (Dylox 6.2G) at 9.0 kg a.i./ha with a shaker on September 14. In trial 3, trichlorofon was applied as in trial 2. All plots received post-application irrigation (see Table 2).
(§1) Efficacy data from all field trials were obtained from six, 18×18×7 cm deep samples removed from the middle of each plot. Soil from each square was lifted with a spade and placed in a plastic dishpan and the number of live grubs counted by hand sifting the soil and turf.
(§2) Data on the total numbers of surviving grubs from each plot were subjected to the analysis of variance following the log10 […] transformation using Statsoft (1999) for each trial and means were separated by Tukey's mean separation test at P=0.05. In cylinder studies, the number of surviving grubs from all cylinders were pooled by plot. […]. For predictability analysis, all data on the mean percentage control of all white grubs were pooled by treatment and subjected to the analysis of variance using Statsoft (1999) following arcsine transformation. Only trichlorfon was included in these analyses as it is applied as a curative treatment just like the nematodes.

[2] = tested on: Cyclocephala borealis grubs; test: Large field plot trial 5, golf course fairway; conditions: Trial 5, Mansfield, Ohio, autumn 2001; nematodes 2.5 × 10^9 IJ/ha, imidacloprid 0.33 kg, trichlorfon 9.0 kg; applied September 11, data October 9
Procedure: (§3) Four field plot trials (Trials 5-8) were conducted on natural populations of P. japonica and C. borealis, or both species if they occurred together. Trial 5 was conducted on a naturally occurring mixed population of P. japonica and C. borealis grubs on a fairway at Wooldridge Woods Golf Course in Mansfield, Ohio in autumn 2001. Plots measuring 3-m by 3-m and separated by 0.9-m alleyways were arranged in a complete randomized block design with five replications/treatment. All treatments including imidacloprid (Merit 75WP) and trichlorfon (Dylox 6.2G) were applied on the morning of September 11 as curative treatments. Liquid applications were made with a sprinkling can at a volume of 8 liters/plot. Nematodes were applied at 2.5×10^9 IJ/ha. The trichlorfon granules were applied using a Gandy Drop Spreader (Gandy Company, Owatonna, Minn.). Grub population consisted of 30% second and 70% third instar P. japonica, and 100% third instar C. borealis. Turf consisted of 70% Kentucky bluegrass and 30% annual bluegrass, topography level, height 2.5 cm, and had no thatch.
as §1, §2

Popillia japonica grubs = test: Large field plot trial 5, golf course fairway; conditions: Trial 5, Mansfield, Ohio, autumn 2001, nematodes 2.5 × 10^9 IJ/ha, imidacloprid 0.33 kg, trichlorfon 9.0 kg, applied September 11, data October 9
Procedure: as §3, §1, §2

[3] = tested on: mixed populations of third instar Popillia japonica and Cyclocephala borealis grubs; test: Large field plot trials 6 and 7, Kentucky bluegrass lawn; conditions: Ohio, autumn 2001, nematodes 2.5 × 10^9 IJs/ha, applied September 14, data October 9
Procedure: Trials 6 and 7 were conducted on stands of Kentucky bluegrass naturally infested with mixed populations of mostly third instar P. japonica and C. borealis in autumn 2001. The 1.2 by 1.2-m plots were located at the TrueGreen Technical Center in Delaware, Ohio. The nematodes were applied at 2.5×10^9 IJs/ha in trial 6 and at 5.0×10^9 IJ/ha in trial 7 with a CO2 backpack sprayer with a 10 cm boom fitted with three 8005 LP flat fan nozzles at a volume of 813 liters/ha. Plots were arranged in a randomized complete block design with 5 replications/treatment for both trials.
as §1, §2

[4] = tested on: white grubs, Popillia japonica and Cyclocephala borealis; test: Pooled analysis of field trials (irrigation plus rainfall, predictability); conditions: nematodes at 2.5×10^9 IJs/ha, trichlorfon curatively at standard rate; mean ± S.E.
Source text: as §2

[5] = Trial 1, 2000 Wooster, nematodes 2.5 × 10^9 IJs/ha applied Sept 13, halofenozide 1.61 kg a.i./ha applied July 13, observed Oct 5
[6] = Trial 2, 2001 Wooster, nematodes 2.5 × 10^9 IJs/ha Sept 12, imidacloprid 0.34 kg July 14, trichlorfon 9.0 kg Sept 12, observed Oct 10
[7] = Trial 3, 2001 Columbus, nematodes 5.0 × 10^9 IJs/ha, trichlorfon 9.0 kg, applied Sept 14, observed Oct 9
[8] = Trial 6, Columbus, trichlorfon 9.0 kg/ha
[9] = Trial 7, Columbus, trichlorfon standard rate 9.0 kg

Row | Compound | % Control [1, 5] | Mean grubs/plot [1, 5] | C. borealis % control [2] | C. borealis Mean grubs/plot [2] | P. japonica % Control (Popillia japonica grubs) | P. japonica Mean grubs/plot (Popillia japonica grubs) | P. japonica % Control (Popillia japonica grubs; listed as IMIDACLOPRID (MERIT 75 WP)) | % Control [1, 6] | Mean grubs/plot [1, 6] | % Control [1, 7] | Mean grubs/plot [1, 7] | % Control [3, 8] | Mean grubs/plot [3, 8] | % Control [3, 9] | Mean grubs/plot [3, 9] | overall percent white grub control, pooled data across all trials [4]
1 | CC(C)(C)N(NC(=O)c1ccc(Cl)cc1)C(=O)c1ccccc1 [Halofenozide] | 98% | 0.7 b grubs/plot | – | – | – | – | – | – | – | – | – | – | – | – | – | –
2 | O=[N+]([O-])NC1=NCCN1Cc1ccc(Cl)nc1 [Imidacloprid] | – | – | 47% | 3.8 ab grubs/plot | no effect | 17.8 a grubs/plot | 0% | 98% | 0.3 d grubs/plot | – | – | – | – | – | – | –
3 | COP(=O)(OC)C(O)C(Cl)(Cl)Cl (stereo not shown) [Trichlorfon] | – | – | 47% | 3.8 b grubs/plot | 57% | 7.6 c grubs/plot | – | 92% | 1.3 cd grubs/plot | 29% | 6.4 ab grubs/plot | 0% | 11.7 a grubs/plot | 77% | 4.0 b grubs/plot | 50.33±13.5%
